Residue numbers refer to the chain shown, from its start. Numbers in names are those of the source. Each block holds one molecule with its values, some of them ahead of it.
Experiments:
[1] = test system: leukemic blasts; assay: Leukemic blast analysis including HLA-DR and c-Kit markers; format: cell-based, human
[2] = test system: R132G IDH1 AML cells; assay: Blast and G/M cell fractions by CD45/SSC flow cytometry; format: cell-based, human; details: 3 μM, 7 days
[3] = target: homodimeric R132H IDH1 (Homo sapiens, UniProt O75874, R132H); assay: Biochemical mechanism of inhibition analysis; details: by analogy with close analog
Chain of homodimeric R132H IDH1 (O75874 whole entry R132H): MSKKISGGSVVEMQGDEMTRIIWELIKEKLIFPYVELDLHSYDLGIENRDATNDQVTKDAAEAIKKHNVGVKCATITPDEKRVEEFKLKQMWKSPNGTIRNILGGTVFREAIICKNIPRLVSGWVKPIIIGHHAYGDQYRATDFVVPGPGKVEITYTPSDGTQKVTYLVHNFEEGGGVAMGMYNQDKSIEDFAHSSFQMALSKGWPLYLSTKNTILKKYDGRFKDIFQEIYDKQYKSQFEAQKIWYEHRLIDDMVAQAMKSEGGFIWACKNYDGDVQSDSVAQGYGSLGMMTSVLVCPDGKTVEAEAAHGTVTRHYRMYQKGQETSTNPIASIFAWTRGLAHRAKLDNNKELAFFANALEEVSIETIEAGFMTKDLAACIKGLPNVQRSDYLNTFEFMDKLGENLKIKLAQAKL

[4] = test system: R132G IDH1 mutant AML cells; assay: DNA methylation profiling by ERRBS; format: cell-based, human; details: q-value < 0.001, methylation difference ≥ 25%
[5] = test system: IDH2 R172 U87MG; assay: IDH2 cellular 2-HG assay in R172 U87MG cells; format: cell-based; details: read-out: IDH2 IC50 R172 U87MG
[6] = test system: R132G IDH1 AML cells; assay: Intracellular 2-HG in primary R132G IDH1 AML cells ex vivo; format: cell-based, human; details: 1.7 μM
[7] = Stability of compounds in media; format: physicochemical
[8] = test system: H3K9me2 in R132C IDH1 expressing HT-1080 cells; assay: Western blot of histone H3K9me2 in HT-1080 cells; format: cell-based, human; details: 48 hours of treatment
[9] = test system: primary IDH1-mutant human AML cells in NSG mice; assay: Xenotransplantation of primary IDH1 mutant AML cells in NSG mice; format: in vivo
[10] = test system: R132G IDH1 AML cells; assay: Cell cycle analysis; format: cell-based, human; details: 3 μM, 7 days
[11] = test system: R132C IDH1 AML cells; assay: Cell cycle analysis; format: cell-based, human; details: 3 μM, 7 days
[12] = target: T1, IDH2 SW1353 cell 2-HG (Homo sapiens, UniProt P48735, R172S); assay: IDH2 cellular 2-HG assay in SW1353 cells; format: cell-based; details: read-out: IDH2 IC50 SW1353 cell 2-HG
T1 sequence (P48735 40-452 R172S): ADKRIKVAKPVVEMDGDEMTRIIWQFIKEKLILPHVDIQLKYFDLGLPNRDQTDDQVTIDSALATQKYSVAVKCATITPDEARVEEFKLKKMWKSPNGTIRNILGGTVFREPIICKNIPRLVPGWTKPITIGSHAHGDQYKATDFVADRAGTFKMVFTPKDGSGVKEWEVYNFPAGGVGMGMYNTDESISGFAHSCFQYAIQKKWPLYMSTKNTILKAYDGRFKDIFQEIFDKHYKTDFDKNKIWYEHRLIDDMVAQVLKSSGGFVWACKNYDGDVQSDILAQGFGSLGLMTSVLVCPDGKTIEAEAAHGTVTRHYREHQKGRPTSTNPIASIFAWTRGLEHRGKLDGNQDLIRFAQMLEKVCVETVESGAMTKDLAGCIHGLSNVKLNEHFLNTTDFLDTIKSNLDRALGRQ

[13] = PAMPA, pH 7.4
[14] = Pharmacokinetic analysis in mouse; format: in vivo; details: CD-1 mice, IP, 213 mg/kg, up to 24 hours
[15] = target: R132C IDH1 mutant HT-1080 cells (Homo sapiens, UniProt O75874, R132C); assay: Quantification of intracellular 2-HG in HT-1080 cells; format: cell-based
Chain of R132C IDH1 mutant HT-1080 cells (O75874 whole entry R132C): as the sequence (O75874 whole entry R132H) above, with H132C counted along it
Chain of R132C IDH1 mutant HT-1080 cells (O75874 whole entry partner): as the sequence (O75874 whole entry R132H) above, with H132R counted along it

[16] = target: the molecule itself; assay: SEC

- Mechanism of action versus NADPH [3]: mixed vs NADPH
- Mechanism of action versus αKG [3]: competitive vs αKG
- IC50 [5]: 7.94 µM
- Stability in media [7]: at least 14 days
- IC50 [12]: 4.69 µM
- AMP (artificial membrane permeability) [13]: 32.4 ×10⁻⁶ cm/s
- AMP permeability class [13]: high
Molecule: C[C@H](O)c1cccc(NC(=O)c2nn(Cc3ccc(F)cc3)c3c2CN(C(=O)c2ccc[nH]2)C[C@H]3C)c1 [GSK321, (7R)-1-[(4-fluorophenyl)methyl]-N-{3-[(1S)-1-hydroxyethyl]phenyl}-7-methyl-5-(1H-pyrrol-2-ylcarbonyl)-4,5,6,7-tetrahydro-1H-pyrazolo[4,3c]pyridine-3-carboxamide]
- Leukemic blasts, analysis including HLA-DR and c-Kit markers [1]: 0.4 ± 0.2 fold
- Fraction of leukemic blast cells (CD45low/+ SSClow) in comparison to DMSO [2]: 0.7 ± 0.1 fold
- Hypermethylated CpG loci ([4]; 3 μM, 6 days, vs controls): 10153
- Hypomethylated CpG loci ([4]; 3 μM, 6 days, vs controls): 18668
- Hypermethylated regions (DMRs) ([4]; 1kb tiles): 1157
- Hypomethylated regions (DMRs) ([4]; 1kb tiles): 2075
- Inhibition of intracellular 2-HG [6]: 78%
- Effect on histone H3K9me2 levels [8]: markedly decreased H3K9me2 levels
- 2HG in IDH1-mutant AML cells of treated mice ([9]; NSG mice): decrease in 2HG
- Cells in G1-phase, R132G IDH1 [10]: 57.9 ± 6.9%
- Quiescent (G0)-phase cells, R132G IDH1 [10]: 36.7 ± 4.4%
- Cells in G1-phase, R132C IDH1 [11]: 66.8 ± 12.0%
- Quiescent (G0)-phase cells, R132C IDH1 [11]: 24.0 ± 11.8%

- EC50 [15]: 0.32 µM
Molecule: COc1c(C)cc(NC(=O)c2nn(Cc3ccc(F)cc3)c3c2CN(C(=O)c2ccc[nH]2)C[C@]3(C)C(N)=O)cc1C [GSK864]
- Blood concentrations after intraperitoneal administration [14]: significant concentrations of GSK864 were maintained
- Percentage of blast cells (SSClow CD45low/+) in bone marrow ([9]; NSG mice, 150 mg/kg): significant decrease in the percentage of blast cells
- huCD45+ CD38+ cells in bone marrow ([9]; R132C or R132H IDH1 mutant engrafted NSG mice, 150 mg/kg): slightly increased numbers of huCD45^+ CD38^+ cells

B1: IDH2(40-452)Flag wild type (enzyme, human, UniProt P48735 40-452, looked up)
chain: T1 sequence (P48735 40-452 R172S) with S133R
- binding result [16]: binds

B2: IDH2(40-452)Flag R140Q (enzyme, human, UniProt P48735 40-452, looked up)
chain: T1 sequence (P48735 40-452 R172S) with R101Q, S133R
- binding result [16]: binds

B3: IDH2(40-452)Flag R172S (enzyme, human, UniProt P48735 40-452, looked up)
chain: T1 sequence (P48735 40-452 R172S)
- binding result [16]: binds

From paper PMC5155016 (Nature chemical biology, 2015)
